Data published in patent publication US10738051B2, “β-lactamase inhibitors” (priority 2016, dated 2020).

How the values were obtained:
[1] = system: K. pneumoniae ATCC 51503 (TEM-10/12); experiment: In vitro synergistic inhibitory concentration (SIC) assay; format: cell-based; details: Klebsiella pneumoniae, ATCC51503, 37° C. 20 hours, read-out: minimum inhibitory concentration, used alone
Method: (§1) 2) 30 μL dimethyl sulfoxide was added to columns 2-12 of the 96-V well plate. 60 μL prepared ceftazidime was added to column 1. 30 μL ceftazidime was transferred from column 1 to column 2 and mixed with a pipette. The same operation was continued until column 11, and 30 μL of the mixture in column 11 was discarded. This was the compound mother plate.
(§2) Mix the liquid in the mother plate with a pipette.
(§3) 4) One day before the experiment, the bacterial glycerol stock which was stored in a −80° C. refrigerator was streaked on a trypticase soy agar plate (TSA), and the plate was incubated in a 37° C. incubator overnight. On the day of the experiment, the monoclonal bacterial was suspended in physiological saline and the turbidity of which was adjusted to 0.5 McFarland standard, corresponding to 1×10^8 CFU/ml. This suspension was diluted 100-fold to 1×10^6 CFU/mL with caton-adjusted Mueller-Hnton broth (CAMHB), which was used as an inoculation fluid.
(§4) 5) a 96-U plate was used as a test plate. Firstly, adding 98 μL CAMHB to each well of the test plate and transferring 2 μL solution in the mother plate to the test plate. 100 μL inoculation fluid was added to each well of the test plate.
(§5) 6) The test plate was incubated at 37° C. for 20 hours.
(§6) The above-mentioned method was also used to determine the antibacterial activity of the test compound or the antibiotic when used alone.

[2] = system: K. pneumoniae ATCC BAA-1898 (KPC); experiment: as above; format: cell-based; details: Klebsiella pneumoniae, ATCCBAA1898, 37° C. 20 hours, read-out: minimum inhibitory concentration, used alone
Method: as §1, §2, §3, §4, §5, §6

[3] = system: K. pneumoniae ATCC BAA-1705 (KPC); experiment: as above; format: cell-based; details: Klebsiella pneumoniae, ATCCBAA1705, 37° C. 20 hours, read-out: minimum inhibitory concentration, used alone
Method: as §1, §2, §3, §4, §5, §6

[4] = system: K. pneumoniae ATCC BAA-2470 (NDM-1); experiment: as above; format: cell-based; details: Klebsiella pneumoniae, ATCCBAA2470, 37° C. 20 hours, read-out: minimum inhibitory concentration, used alone
Method: as §1, §2, §3, §4, §5, §6

[5] = system: K. pneumoniae ATCC-700603 (SHV-18); experiment: as above; format: cell-based; details: Klebsiella pneumoniae, ATCC700603, 37° C. 20 hours, read-out: minimum inhibitory concentration, used alone
Method: as §1, §2, §3, §4, §5, §6

[6] = target: AmpC-EC (Class C) β-lactamase (UniProt P05364); experiment: In vitro enzymatic assay (Nitrocefin); format: biochemical; details: Nitrocefin 0.1 mM, 1 × PBS pH 7.4, 0.1 mg/mL BSA, read-out: IC50, inhibitory activity on β-lactamase
Method: (§7) 2) Prepare buffer solution A (1×PBS, pH 7.4, 0.1 mg/mL BSA) for enzymatic assay;
(§8) 3) The compound mother liquor was 4-fold serial diluted for 11 times with DMSO in a 96-well tip-bottom plate, which was used as a working solution. A 96-well flat bottom plate was used as a test plate, the corresponding reaction buffer was previously added to each well, followed by addition of a corresponding volume of the working solution (100 μM-0.095 nM and 0 nM). Wherein, EDTA-Na2 was used as a control for the NDM-1 test at a concentration of 20 mM;
(§9) 4) adding the corresponding β-lactamase, and the test plate was incubated at 37° C. for 5 minutes;
(§10) 5) Adding 5 μL Nitrocefin (the final reaction volume was 100 μL), the absorbance OD490 of the reaction solution in the plate was measured by a microplate reader and the result was recorded, the absorbance was measured every minute over 30 minutes;
(§11) 6) The microplate reader could give a curve of OD490 over time. The slope of the curve (Abs2−Abs1)/(T2−T1) was calculated by taking two data points Abs1 and Abs2 within the linear range of the curve.
(§12) 7) The relative inhibition rate was calculated as follows: Slope (EC) was calculated under the condition of absence of an inhibitor, and Slop(S) was calculated under the condition of an inhibitor at a certain concentration.
(§13) The relative inhibition rate and the corresponding concentration of the inhibitor were used to calculate the IC50 value of the inhibitor on β-lactamase. In this experiment, the IC50 was calculated using the formula of GraphPad Prism 5.0, log(inhibitor) vs. normalized response-Variable slope.

[7] = target: OXA-9 (Class D) β-lactamase (Klebsiella pneumoniae, UniProt P0A3M3); experiment: In vitro enzymatic assay (Nitrocefin); format: biochemical
Method: as §7, §8, §9, §10, §11, §12, §13

[8] = target: AmpC-PA (Class C) β-lactamase (Pseudomonas aeruginosa, UniProt P24735); experiment: In vitro enzymatic assay (Nitrocefin); format: biochemical
Method: as §7, §8, §9, §10, §11, §12, §13

[9] = target: CTX-M-44 (Class C) β-lactamase (Escherichia coli, UniProt Q47066); experiment: In vitro enzymatic assay (Nitrocefin); format: biochemical
Method: as §7, §8, §9, §10, §11, §12, §13

[10] = target: TEM-1 (Class A) β-lactamase (Escherichia coli, UniProt P62593); experiment: In vitro enzymatic assay (Nitrocefin); format: biochemical; details: Nitrocefin 0.1 mM, 1 × PBS pH 7.4, 0.1 mg/mL BSA, read-out: IC50, inhibitory activity on β-lactamase
Method: as §7, §8, §9, §10, §11, §12, §13

[11] = target: KPC (Class A) β-lactamase (Klebsiella pneumoniae, UniProt Q9F663); experiment: In vitro enzymatic assay (Nitrocefin); format: biochemical
Method: as §7, §8, §9, §10, §11, §12, §13

[12] = target: OXA-2 (Class D) β-lactamase (Escherichia coli, UniProt P0A1V9); experiment: In vitro enzymatic assay (Nitrocefin); format: biochemical
Method: as §7, §8, §9, §10, §11, §12, §13

[13] = system: Klebsiella pneumoniae (ATCC BAA-1705, KPC-2); experiment: Mouse lung infection model; format: in vivo, CD-1 mice; details: ip, combined with ceftazidime
Method: Female CD-1 mice of about 7 weeks old, weighing 26-28 g; cyclophosphamide was injected at a dose of 150 mg/kg 4 days before infection, and further 100 mg/kg 1 day before infection; the bacteria infected was Klebsiella pneumoniae (ATCC BAA-1705, KPC-2). Compound 1 and the reference compound OP-0595 were synthesized in the laboratory.
Female CD-1 mice were infected with Klebsiella pneumoniae by intranasal instillation. Each mouse was instilled with 50 μL bacterial fluid through nasal cavity at a dose of 3.14E+07 CFU per mouse. At 2 h, 4 h, 6 h and 8 h after infection, each group of mice were treated with a corresponding compound or combined compounds by intraperitoneal injection.
At 10 h after infection, the mice in group 1, 2 and 3 were euthanized, and the lung was taken out and placed in a 50 mL centrifuge tube containing 10 mL sterile normal saline, the tube was placed on wet ice and transferred to BSL-2 laboratory for CFU counting. At 20 h after infection, the mice in group 4, 5 and 6 were euthanized and treated according to the same procedure.
The lungs were ground with an IKA T10 homogenizer (the maximum speed was 20S, repeated once). […] After 24 hours, the plate was taken out and the number of single colonies grown in each homogenate with a gradient dilution, and the amount of bacterial load in the lung of each mouse was calculated.

CTX-M-44 (Class C) β-lactamase, sequence (Q47066 30-291): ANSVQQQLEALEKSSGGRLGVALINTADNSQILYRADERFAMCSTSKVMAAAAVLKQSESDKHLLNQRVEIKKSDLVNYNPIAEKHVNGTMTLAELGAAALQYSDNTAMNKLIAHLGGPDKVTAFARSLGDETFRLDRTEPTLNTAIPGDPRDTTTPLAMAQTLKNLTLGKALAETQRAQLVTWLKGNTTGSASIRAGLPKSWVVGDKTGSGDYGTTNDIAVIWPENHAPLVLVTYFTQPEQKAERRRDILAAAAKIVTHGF
OXA-9 (Class D) β-lactamase, sequence (P0A3M3 25-274): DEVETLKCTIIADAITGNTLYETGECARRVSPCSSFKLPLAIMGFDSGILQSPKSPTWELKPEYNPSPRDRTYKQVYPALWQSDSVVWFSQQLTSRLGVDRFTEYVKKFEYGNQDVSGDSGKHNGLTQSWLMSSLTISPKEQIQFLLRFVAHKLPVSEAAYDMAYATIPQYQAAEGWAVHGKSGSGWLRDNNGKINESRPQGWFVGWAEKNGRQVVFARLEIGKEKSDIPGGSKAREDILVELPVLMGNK
KPC (Class A) β-lactamase, sequence (Q9F663 25-293 limits assumed): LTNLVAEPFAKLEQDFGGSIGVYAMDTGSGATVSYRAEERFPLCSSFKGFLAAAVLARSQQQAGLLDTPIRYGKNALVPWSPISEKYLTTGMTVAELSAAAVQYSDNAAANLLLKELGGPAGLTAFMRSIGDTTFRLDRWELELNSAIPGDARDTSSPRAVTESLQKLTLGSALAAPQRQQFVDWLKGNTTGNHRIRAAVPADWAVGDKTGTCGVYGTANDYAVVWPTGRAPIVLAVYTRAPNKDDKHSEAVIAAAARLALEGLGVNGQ
AmpC-PA (Class C) β-lactamase, sequence (P24735 27-397): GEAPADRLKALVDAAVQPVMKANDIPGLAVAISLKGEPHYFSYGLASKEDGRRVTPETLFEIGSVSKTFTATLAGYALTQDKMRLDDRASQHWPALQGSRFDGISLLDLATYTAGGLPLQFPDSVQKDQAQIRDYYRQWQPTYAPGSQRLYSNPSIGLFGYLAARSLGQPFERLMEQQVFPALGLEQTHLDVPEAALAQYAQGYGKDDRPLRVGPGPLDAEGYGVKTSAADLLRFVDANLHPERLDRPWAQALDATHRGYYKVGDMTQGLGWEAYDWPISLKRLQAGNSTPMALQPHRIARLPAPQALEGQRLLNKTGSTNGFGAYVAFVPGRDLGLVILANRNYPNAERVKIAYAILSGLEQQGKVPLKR
TEM-1 (Class A) β-lactamase, sequence (P62593 24-286 limits assumed): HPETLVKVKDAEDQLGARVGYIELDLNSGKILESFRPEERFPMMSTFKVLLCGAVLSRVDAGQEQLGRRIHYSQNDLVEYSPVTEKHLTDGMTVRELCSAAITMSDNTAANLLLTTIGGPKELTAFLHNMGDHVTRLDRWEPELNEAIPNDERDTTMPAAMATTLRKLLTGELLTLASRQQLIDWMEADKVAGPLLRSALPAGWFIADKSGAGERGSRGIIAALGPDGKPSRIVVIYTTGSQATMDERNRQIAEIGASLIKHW
OXA-2 (Class D) β-lactamase, sequence (P0A1V9 22-275): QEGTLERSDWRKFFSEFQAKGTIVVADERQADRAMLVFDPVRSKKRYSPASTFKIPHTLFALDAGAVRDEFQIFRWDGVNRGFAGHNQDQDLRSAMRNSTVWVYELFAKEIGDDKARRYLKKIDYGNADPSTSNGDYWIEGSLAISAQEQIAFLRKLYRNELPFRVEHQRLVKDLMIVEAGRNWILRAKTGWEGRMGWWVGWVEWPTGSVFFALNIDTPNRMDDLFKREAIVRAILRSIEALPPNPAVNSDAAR

With N=C(N)NOCCONC(=O)[C@@H]1CC[C@@H]2CN1C(=O)N2OS(=O)(=O)O [Compound 1] as the molecule, how does the MIC [1] read?
The MIC was > 128 µg/mL.

What about the MIC [2] of the same molecule?
Its MIC is > 128 µg/mL.

What about the MIC [3] of the same molecule?
Its MIC is 128 µg/mL.

What about the MIC [4] of the same molecule?
Its MIC is > 128 µg/mL.

And the MIC [5]?
Its MIC is > 128 µg/mL.

And the IC50 [6]?
Its IC50 is 0.0202 µM.

What about the IC50 [7] of the same molecule?
The IC50 was 5 µM.

And the IC50 [8]?
The IC50 was 0.0986 µM.

And the IC50 [9]?
The IC50 was 0.0319 µM.

What about the IC50 [10] of the same molecule?
Its IC50 is 0.0389 µM.

What about the IC50 [11] of the same molecule?
Its IC50 is 0.0431 µM.

And the IC50 [12]?
Its IC50 is 1.55 µM.

And the “reduction of the amount of bacterial load in the lung compared with the reference group of OP-0595” value ([13]; female CD-1 mice, K. pneumoniae ATCC BAA-1705 (KPC-2), 25/6.25 mpk and 50/12.5 mpk)?
The value was 0.5-1.5 logs.

And the “potency compared with reference compound OP-0595” value ([13]; mouse lung infection model)?
The value was “significantly more potent”.
